Source: US20250101017A1, “SALT CRYSTAL FORM AND FREE BASE CRYSTAL FORM OF KINASE INHIBITOR” (CYTOSINLAB THERAPEUTICS CO., LTD., priority 2022, published 2025)
Converted amounts (≈) assume the structure as drawn. Where two headings read alike, the source gives them in different places.

Key:
Type in all cases: physicochemical
[1] = Competitive pulping of API (free base Form A) and Form B in saturated DCM or water solution at 50° C., XRPD
Description: A saturated solution of API (free base Form A) in DCM and water was prepared. Approximately 10 mg of API (free base Form A) and free base crystal form Form B was weighed respectively and added into a 4 ml glass bottle, and 1 mL of the saturated solution was added. […] The resulting solid was subjected to XRPD testing.

[2] = Dynamic moisture adsorption (DVS), hygroscopicity
Description: DSV pattern determination method: Dynamic moisture adsorption was performed using Intrinsic DVS. In step mode, the sample is subjected to loop testing at a relative humidity of 0-90%. The sample is analyzed at 10% RH. The dm/dt is set to 0.002 to achieve equilibrium between the sample and the room environment.
Approximately 250 mg of API was weighed and added into a 4 ml glass vial, and 2.5 ml of ethyl acetate was added. The mixture was stirred overnight under magnetic stirring at 50° C., cooled to room temperature, and then filtered, and the obtained solid was dried in vacuum overnight in a 50° C. oven. The resulting solid was free base crystal form Form B. The free base crystal form Form B was subjected to various characterization.

[3] = Solid stability of crystal forms (80° C., light exposure, 25° C./60% RH, 40° C./75% RH); purity by liquid chromatography and XRPD of the solids
Description: A certain amount of API and malate crystal form VII-A were weighed and added into a liquid phase vial, and a total of 9 parallels were prepared. The 9 parallels were placed separately in 80° C. (open); 25° C., 60% RH (open); 40° C., 75% RH (open); and light stability box closed). The stabilities under conditions of: 80° C. for one day, light exposure for 10 days, as well as 25° C., 60% RH and 40° C., 75% RH for one and two weeks were tested, and the XRPD of the solids were measured.
A certain amount of crystal form B was weighed and added into a liquid phase vial, and a total of 9 parallels were prepared. 9 parallels were placed separately in 80° C.; 25° C., 60% RH, 40° C., 75% RH; and light stability boxe.

[4] = Solubility at 37° C. in buffer solutions with different pH (about 10 mg in 1 ml, 2 h and 24 h); filtrate concentration and pH, XRPD of remaining solid; settings: for solubility at 2 h / solubility at 24 h: read-out: Solubility at 37° C.
Description: Approximately 10 mg of malate crystal form VII-A and free base Form A were weighed separately, and 1 ml of buffer solutions with different pH were added to make the solution supersaturated, and the mixtures were stirred at 37° C. for 2 h and 24 hours. The samples were filtered, and the filtrates were measured to determine the concentration and pH value, and the remaining solid was subjected to XRPD determination. The specific results were as follows: […]

solid crystal form obtained by competitive pulping ([1]; API and Form B together in DCM, 50° C., 3 days, XRPD): tended to approach Form L | appearance after competitive pulping ([1]; API and Form B together in DCM, after 5 days of beating): became oily | crystal form obtained by competitive pulping ([1]; API and Form B together in water, 50° C., 3 days, XRPD): a mixture of Form B and API | XRPD results ([1]; competitive pulping of API and Form B, DCM, 50° C., 3 days): Form K | crystal form before and after DVS testing [2]: did not change | Crystal form ([3]; 25° C., 60% RH, 1 week): Unchanged | Degradation ([3]; 25° C., 60% RH, 1 week): 0.00% | Purity ([3]; 25° C., 60% RH, 1 week): 97.69% | Crystal form ([3]; 25° C., 60% RH, 2 weeks): Unchanged | Degradation ([3]; 25° C., 60% RH, 2 weeks): 0.00% | Purity ([3]; 25° C., 60% RH, 2 weeks): 97.67% | Crystal form ([3]; 40° C., 75% RH, 1 week): Unchanged | Degradation ([3]; 40° C., 75% RH, 1 week): 0.00% | Purity ([3]; 40° C., 75% RH, 1 week): 97.70% | Crystal form ([3]; 40° C., 75% RH, 2 weeks): Unchanged | Degradation ([3]; 40° C., 75% RH, 2 weeks): 0.01% | Purity ([3]; 40° C., 75% RH, 2 weeks): 97.66% | physical and chemical stability ([3]; 80° C. 1 day, light 10 days, 25° C./60% RH and 40° C./75% RH 1 and 2 weeks): good physical and chemical stability | Crystal form ([3]; 80° C., 1 day): Unchanged | Degradation ([3]; 80° C., 1 day): 0.17% | Purity ([3]; 80° C., 1 day): 97.50% | Crystal form ([3]; Light control, 10 days): Unchanged | Degradation ([3]; Light control, 10 days): 0.00% | Purity ([3]; Light control, 10 days): 97.67% | Crystal form ([3]; Light exposure, 10 days): Unchanged | Degradation ([3]; Light exposure, 10 days): 0.04% | Purity ([3]; Light exposure, 10 days): 97.63% | Purity ([3]; initial): 97.67% | solubility compared to API ([4]; 37° C., pH 6.8, pH 7.4, FaSSIF and water): improved compared to API | solubility at 2 h ([4]; FaSSIF, 37 °C, fassif, thermodynamic from solid, medium FaSSIF, 2 h): 1190 µg/mL (≈ 2070 µM) | solubility at 24 h ([4]; FaSSIF, 37 °C, fassif, thermodynamic from solid, medium FaSSIF, 24 h): 1400 µg/mL (≈ 2440 µM) | solubility at 2 h ([4]; FeSSIF, 37 °C, fessif, thermodynamic from solid, medium FeSSIF, 2 h): > 10000 µg/mL | solubility at 24 h ([4]; FeSSIF, 37 °C, fessif, thermodynamic from solid, medium FeSSIF, 24 h): > 10000 µg/mL | solubility at 2 h ([4]; SGF, 37 °C, simulated gastric fluid, thermodynamic from solid, medium SGF, 2 h): > 10000 µg/mL | solubility at 24 h ([4]; SGF, 37 °C, simulated gastric fluid, thermodynamic from solid, medium SGF, 24 h): > 10000 µg/mL | solubility at 2 h ([4]; buffer solution pH 6.8, 37 °C, pH 6.8, aqueous buffer, thermodynamic from solid, medium pH 6.8, 2 h): 310 µg/mL (≈ 539 µM) | solubility at 24 h ([4]; buffer solution pH 6.8, 37 °C, pH 6.8, aqueous buffer, thermodynamic from solid, medium pH 6.8, 24 h): 250 µg/mL (≈ 436 µM) | solubility ([4]; buffer solutions: pH 1.2, pH 3.0, pH 4.5, FeSSIF, SGF, 37 °C, aqueous buffer, thermodynamic from solid, 37° C., pH 1.2, pH 3.0, pH 4.5, FeSSIF, and SGF buffer): > 10000 µg/mL | Crystal form ([4]; medium FaSSIF, XRPD of remaining solid): Form B | pH (24 h) ([4]; medium FaSSIF, filtrate, 37° C.): 6.755 | pH (24 h) ([4]; medium FeSSIF, filtrate, 37° C.): 5.724 | Solubility at 37° C. ([4]; medium H2O, 24 h): 17.9 µg/mL (≈ 31.1 µM) | Crystal form ([4]; medium H2O, XRPD of remaining solid): Form B | pH (24 h) ([4]; medium H2O, filtrate, 37° C.): 7.197 | pH (24 h) ([4]; medium SGF, filtrate, 37° C.): 1.910 | Solubility at 37° C. ([4]; medium pH 1.2, 2 h): >10000 µg/mL | Solubility at 37° C. ([4]; medium pH 1.2, 24 h): >10000 µg/mL | pH (24 h) ([4]; medium pH 1.2, filtrate, 37° C.): 1.925 | Solubility at 37° C. ([4]; medium pH 3.0, 2 h): >10000 µg/mL | Solubility at 37° C. ([4]; medium pH 3.0, 24 h): >10000 µg/mL | pH (24 h) ([4]; medium pH 3.0, filtrate, 37° C.): 4.892 | Solubility at 37° C. ([4]; medium pH 4.5, 2 h): >10000 µg/mL | Solubility at 37° C. ([4]; medium pH 4.5, 24 h): >10000 µg/mL | pH (24 h) ([4]; medium pH 4.5, filtrate, 37° C.): 6.062 | Crystal form ([4]; medium pH 6.8, XRPD of remaining solid): Form B | pH (24 h) ([4]; medium pH 6.8, filtrate, 37° C.): 6.813 | Solubility at 37° C. ([4]; medium pH 7.4, 2 h): 47.2 µg/mL (≈ 82.1 µM) | Solubility at 37° C. ([4]; medium pH 7.4, 24 h): 39.9 µg/mL (≈ 69.4 µM) | Crystal form ([4]; medium pH 7.4, XRPD of remaining solid): Form B | pH (24 h) ([4]; medium pH 7.4, filtrate, 37° C.): 7.311 | crystal form in the buffers ([4]; remaining solids, XRPD): remained unchanged | solubility at 2 h ([4]; water, 37 °C, water, thermodynamic from solid, medium H2O, 2 h): 39.5 µg/mL (≈ 68.7 µM)
SMILES: CCc1nc2c(N)ncc(-c3ccc(N4CCC(N5CCN(CC)CC5)CC4)c(OC)c3)c2nc1NC1CCOCC1 [Form B, 3-ethyl-8-(4-(4-(4-ethylpiperazin-1-yl)piperidin-1-yl)-3-methoxyphenyl)-N2-(tetrahydro-2H-pyran-4-yl) pyridino [3,4-b]pyrazine-2,5-diamine]
